According to a compilation of properties of binary mixtures (doi:10.1016/j.molliq.2014.08.031):

Assay: xn = mol fraction of the nth substance listed
Conditions: 101 kPa

CCCC[n+]1ccn(C)c1.CS(=O)(=O)[O-] + O
Conditions	electrical conductivity [S/m]	viscosity [mPa·s]
328.15 K, x2 = 0.796	3.01	–
328.15 K, x2 = 0.861	5.12	–
328.15 K, x2 = 0.892	6.23	–
328.15 K, x2 = 0.929	7.21	–
328.15 K, x2 = 0.968	7	–
329.15 K, x1 = 0.004	2.04	–
329.15 K, x1 = 0.008	3.67	–
329.15 K, x1 = 0.019	5.81	–
329.15 K, x2 = 0.785	2.9	–
329.15 K, x2 = 0.796	3.05	–
329.15 K, x2 = 0.861	5.25	–
329.15 K, x2 = 0.892	6.26	–
329.15 K, x2 = 0.929	7.35	–
329.15 K, x2 = 0.951	7.83	–
330.15 K, x1 = 0.004	2.09	–
330.15 K, x1 = 0.008	3.72	–
330.15 K, x1 = 0.019	5.88	–
330.15 K, x2 = 0.704	1.84	–
330.15 K, x2 = 0.785	2.98	–
330.15 K, x2 = 0.861	5.37	–
330.15 K, x2 = 0.892	6.36	–
330.15 K, x2 = 0.929	7.5	–
330.15 K, x2 = 0.951	7.95	–
330.15 K, x2 = 0.968	7.38	–
331.15 K, x1 = 0.004	2.13	–
331.15 K, x1 = 0.008	3.77	–
331.15 K, x2 = 0.785	3.04	–
331.15 K, x2 = 0.796	3.2	–
331.15 K, x2 = 0.892	6.46	–
331.15 K, x2 = 0.929	7.61	–
331.15 K, x2 = 0.951	8.05	–
331.15 K, x2 = 0.968	7.39	–
332.15 K, x1 = 0.004	2.15	–
332.15 K, x1 = 0.008	3.83	–
332.15 K, x1 = 0.019	6.06	–
332.15 K, x2 = 0.704	1.99	–
332.15 K, x2 = 0.785	3.13	–
332.15 K, x2 = 0.796	3.29	–
332.15 K, x2 = 0.861	5.61	–
332.15 K, x2 = 0.892	6.57	–
332.15 K, x2 = 0.968	7.57	–
333.15 K, x1 = 0.004	2.17	–
333.15 K, x1 = 0.008	3.78	–
333.15 K, x1 = 0.019	6.17	–
333.15 K, x2 = 0.5596	–	14
333.15 K, x2 = 0.6542	–	9.62
333.15 K, x2 = 0.704	2.04	–
333.15 K, x2 = 0.7495	–	6.25
333.15 K, x2 = 0.785	3.21	–
333.15 K, x2 = 0.796	3.36	–
333.15 K, x2 = 0.8521	–	3.29
333.15 K, x2 = 0.861	5.75	–
333.15 K, x2 = 0.892	6.73	–
333.15 K, x2 = 0.9254	–	1.742
333.15 K, x2 = 0.929	7.9	–
333.15 K, x2 = 0.951	8.3	–
333.15 K, x2 = 0.975	–	0.79
334.15 K, x1 = 0.004	2.18	–
334.15 K, x1 = 0.008	3.93	–
334.15 K, x1 = 0.019	6.35	–
334.15 K, x2 = 0.704	2.12	–
334.15 K, x2 = 0.785	3.28	–
334.15 K, x2 = 0.796	3.43	–
334.15 K, x2 = 0.861	5.94	–
334.15 K, x2 = 0.892	6.95	–
334.15 K, x2 = 0.929	8.03	–
334.15 K, x2 = 0.951	8.46	–
335.15 K, x1 = 0.008	3.98	–
335.15 K, x1 = 0.019	6.33	–
335.15 K, x2 = 0.704	2.17	–
335.15 K, x2 = 0.785	3.35	–
335.15 K, x2 = 0.796	3.52	–
335.15 K, x2 = 0.861	5.97	–
335.15 K, x2 = 0.892	7.12	–
335.15 K, x2 = 0.929	8.18	–
335.15 K, x2 = 0.951	8.59	–
335.15 K, x2 = 0.968	7.93	–
336.15 K, x1 = 0.008	4.04	–
336.15 K, x1 = 0.019	6.42	–
336.15 K, x2 = 0.704	2.19	–
336.15 K, x2 = 0.785	3.42	–
336.15 K, x2 = 0.796	3.59	–
336.15 K, x2 = 0.861	6.09	–
336.15 K, x2 = 0.892	7.28	–
336.15 K, x2 = 0.929	8.3	–
336.15 K, x2 = 0.968	8.02	–
337.15 K, x1 = 0.004	2.29	–
337.15 K, x1 = 0.008	4.1	–
337.15 K, x1 = 0.019	6.53	–
337.15 K, x2 = 0.704	2.3	–
337.15 K, x2 = 0.785	3.52	–
337.15 K, x2 = 0.892	7.41	–
337.15 K, x2 = 0.951	8.9	–
337.15 K, x2 = 0.968	8.19	–
338.15 K, x1 = 0.004	2.31	–
338.15 K, x1 = 0.008	4.15	–
338.15 K, x2 = 0.704	2.35	–
338.15 K, x2 = 0.892	7.53	–
338.15 K, x2 = 0.929	8.57	–
338.15 K, x2 = 0.968	8.14	–
339.15 K, x1 = 0.004	2.35	–
339.15 K, x1 = 0.008	4.19	–
339.15 K, x1 = 0.019	6.73	–
339.15 K, x2 = 0.704	2.42	–
339.15 K, x2 = 0.785	3.67	–
339.15 K, x2 = 0.796	3.85	–
339.15 K, x2 = 0.861	6.47	–
339.15 K, x2 = 0.892	7.69	–
339.15 K, x2 = 0.929	8.73	–
339.15 K, x2 = 0.951	9.11	–
340.15 K, x1 = 0.004	2.39	–
340.15 K, x1 = 0.008	4.25	–
340.15 K, x1 = 0.019	6.83	–
340.15 K, x2 = 0.704	2.47	–
340.15 K, x2 = 0.785	3.75	–
340.15 K, x2 = 0.796	3.93	–
340.15 K, x2 = 0.861	6.6	–
340.15 K, x2 = 0.892	7.77	–
340.15 K, x2 = 0.929	8.85	–
340.15 K, x2 = 0.951	9.22	–
340.15 K, x2 = 0.968	8.56	–
341.15 K, x1 = 0.004	2.42	–
341.15 K, x1 = 0.008	4.29	–
341.15 K, x1 = 0.019	6.96	–
341.15 K, x2 = 0.704	2.54	–
341.15 K, x2 = 0.785	3.84	–
341.15 K, x2 = 0.796	4.07	–
341.15 K, x2 = 0.861	6.71	–
341.15 K, x2 = 0.929	9.03	–
341.15 K, x2 = 0.951	9.15	–
341.15 K, x2 = 0.968	8.57	–
342.15 K, x1 = 0.008	4.35	–
342.15 K, x1 = 0.019	6.93	–
342.15 K, x2 = 0.704	2.61	–
342.15 K, x2 = 0.796	4.11	–
342.15 K, x2 = 0.929	9.18	–
342.15 K, x2 = 0.951	9.55	–
342.15 K, x2 = 0.968	8.66	–
343.15 K, x1 = 0.008	4.38	–
343.15 K, x1 = 0.019	7.17	–
343.15 K, x2 = 0.5596	–	10.6
